# Measured values from patent US9486440B2, “Uses of indole-ketones or indolidones as neuro-protective drugs” (UNIVERSITY OF MACAU, priority 2011, dated 2016).
# “Also recorded” adds a separate entry of the source.
# Assays:
# zebrafish larvae = assay: Locomotion behavioral test of zebrafish larvae; assay type: in vivo; conditions: for MPTP-induced deficit of swimming behavior (total distance travelled): 200 μM MPTP 2 days, then 10 μM MPTP plus drug 3 days, L-deprenyl 20 μM, L-dopa 150 μM
# Experimental: (§1) Wild-type zebrafish (AB strain) and Tg (fli-1:EGFP) transgenic zebrafish were maintained as described in the Zebrafish Handbook (Westerfield, 1993). Zebrafish embryos were generated by natural pair-wise mating (3-12 months old) and raised at 28.5° C. in embryo medium (13.7 mM NaCl, 540 μM KCl, pH 7.4, 25 μM Na2HPO4, 44 μM KH2PO4, 300 μM CaCl2, 100 μM MgSO4, 420 μM NaHCO3, pH 7.4). […] An equal concentration of DMSO in embryo medium was used as vehicle control in each experiment.
# Thus the MPTP exposure needs to last 5 day from 1 dpf. […] Thus subsequent locomotion behavioral studies were done with 200 μM MPTP for treatment for 2 days at 1 dpf then replacing insult with 10 μM MPTP for incubation for another 3 days.
# (§2) After drug treatment, zebrafish larvae at 6 dpf were transferred into 96-well plates (1 fish/well and 12 larvae/group). Fishes responded with excessive stress reaction (such as rapid and disorganized swimming or immobility for 2 min) due to the handling and monitoring of the behavior were discarded. The experiments were performed in a calm enclosed area. The larvae were allowed to habituate to the new environment for 30 min prior to experiments. Behavior was monitored by an automated video tracking system (Viewpoint, ZebraLab, LifeSciences). The 96-well plates and camera were housed inside a Zebrabox and the swimming pattern of each fish was recorded for 10 min and repeated 3 times, once every other 10 min. The total distance moved was defined as the distance (in cm) that the fish had moved during one session (10 min).
# Normally as late as 3 dpf, zebrafish larvae show very little spontaneous swimming, but by 5 dpf they spontaneously swim longer distances and independently search for food. The MPTP exposure therefore needs to last 5 days from 1 dpf. […] Thus subsequent locomotion behavioral studies were performed with 200 μM MPTP for 2-day treatment at 1 dpf then replacing with media containing 10 μM MPTP for another 3-day incubation.
# as §2, with “The larvae were discarded due to” for “Fishes responded with”, “reaction to the handling and monitoring of behavior” for “reaction”, “min).” for “min) due to the handling and monitoring of the behavior were discarded.”, “sealed” for “enclosed”, “min. Swimming behavior” for “min prior to experiments. Behavior”, “for” for “repeated”
# [1] = test system: intersegmental-vessel (ISV) formation; assay: Intersegmental-vessel formation in Tg(fli-1:EGFP) zebrafish; assay type: in vivo; conditions: 1 dpf embryos treated 48 hours; SU4312 3-30 μM, PTK787/ZK222584 0.3-3 μM, VRI 0.1-0.3 μM, SU5416 0.3-1 μM
# Experimental: as §1
# After drug treatment, zebrafish were removed from microplate and observed for gross morphological changes of blood vessel under a fluorescence microscope (Olympus am Motorized Inverted Microscope, Japan) equipped with a digital camera (DP controller, Soft Imaging System, Olympus). Images were analyzed with Axiovision 4.2 and Adobe Photoshop 7.0.
# Wild-type zebrafish (AB strain) and Tg(fli-1:EGFP) transgenic zebrafish were maintained as described in the Zebrafish Handbook (Westerfield, 1993). Zebrafish embryos were generated by natural pair-wise mating (3-12 months old) and were raised at 28.5° C. in embryo medium (13.7 mM NaCl, 540 μM KCl, pH 7.4, 25 μM Na2HPO4, 44 μM KH2PO4, 300 μM CaCl2, 100 μM MgSO4, 420 μM NaHCO3, pH 7.4). […] Equal concentration of DMSO in embryo medium was used as vehicle control in each experiment.
# After drug treatment, zebrafish were removed from the microplate and observed for gross morphological changes of blood vessel under a fluorescence microscope (Olympus am Motorized Inverted Microscope, Japan) equipped with a digital camera (DP controller, Soft Imaging System, Olympus). Images were analyzed with Axiovision 4.2 and Adobe Photoshop 7.0.
Compound,MPTP-induced deficit of swimming behavior (total distance travelled) (zebrafish larvae),inhibition of intersegmental-vessel (ISV) formation [1],"swimming behavior of normal zebrafish larvae, drug alone (zebrafish larvae; without MPTP)","swimming behavior of normal zebrafish larvae, drug alone (zebrafish larvae; zebrafish, in vivo)"
"Cc1cc(C)c(/C=C2\C(=O)Nc3ccccc32)[nH]1 [SU5416, (3Z)-3-[(3,5-dimethyl-1H-pyrrol-2-yl)methylidene]-1,3-dihydro-2H-indol-2-one]",ameliorated the MPTP-induced deficit of swimming behavior,did not show this activity,,
"CN(C)c1ccc(C=C2C(=O)Nc3ccccc32)cc1 [SU4312, 3-[4-(dimethylamino)benzylidenyl]indolin-2-one]",ameliorated MPTP-induced deficit of swimming behavior,showed differential concentration-dependent inhibition of ISV formation,Neither SU4312 nor PTK787/ZK222584 treatment alone notably altered the swimming behavior,
Clc1ccc(Nc2nnc(Cc3ccncc3)c3ccccc23)cc1 [PTK787/ZK222584],but not PTK787/ZK222584 ameliorated MPTP-induced deficit of swimming behavior,showed differential concentration-dependent inhibition of ISV formation; also recorded: at 1 μM inhibited angiogenesis with the potency similar to that of SU4312 at 30 μM,,Neither SU4312 nor PTK787/ZK222584 treatment alone notably altered the swimming behavior
